From ChEMBL document CHEMBL5532698, “2,3-Dihydroquinazolin-4(1H)-ones and quinazolin-4(3H)-ones as broad-spectrum cytotoxic agents and their impact on tubulin polymerisation” (RSC Med Chem, 2024)

Tests used:
A2780 [1] = test: Antiproliferative activity against human A2780 cells assessed as cell growth inhibition at 25 uM incubated for 72 hrs by MTT assay relative to control; assay type: functional
[2] = Cytotoxicity against human MCF-10A cells assessed as cell growth inhibition at 25 uM incubated for 72 hrs by MTT assay relative to control; assay type: toxicity, cell-based
U-87 MG [3] = test: Antiproliferative activity against human U87 cells assessed as cell growth inhibition incubated for 72 hrs by MTT assay; assay type: functional, U-87MG ATCC
HT-29 [4] = test: Antiproliferative activity against human HT-29 cells assessed as cell growth inhibition incubated for 72 hrs by MTT assay; assay type: functional
BE(2)-C [5] = test: Antiproliferative activity against human BE2C cells assessed as cell growth inhibition incubated for 72 hrs by MTT assay; assay type: functional
MCF7 [6] = test: Antiproliferative activity against human MCF7 cells assessed as cell growth inhibition at 25 uM incubated for 72 hrs by MTT assay relative to control; assay type: functional
NCI-H460 [7] = test: Antiproliferative activity against human NCI-H460 cells assessed as cell growth inhibition at 25 uM incubated for 72 hrs by MTT assay relative to control; assay type: functional
A2780 [8] = test: Antiproliferative activity against human A2780 cells assessed as cell growth inhibition incubated for 72 hrs by MTT assay; assay type: functional
A-431 [9] = test: Antiproliferative activity against human A-431 cells assessed as cell growth inhibition incubated for 72 hrs by MTT assay; assay type: functional
BE(2)-C [10] = test: Antiproliferative activity against human BE2C cells assessed as cell growth inhibition at 25 uM incubated for 72 hrs by MTT assay relative to control; assay type: functional
NCI-H460 [11] = test: Antiproliferative activity against human NCI-H460 cells assessed as cell growth inhibition incubated for 72 hrs by MTT assay; assay type: functional
HT-29 [12] = test: Antiproliferative activity against human HT-29 cells assessed as cell growth inhibition at 25 uM incubated for 72 hrs by MTT assay relative to control; assay type: functional
[13] = Antiproliferative activity against human SJG2 cells assessed as cell growth inhibition incubated for 72 hrs by MTT assay; assay type: functional; details: SJ-G2
DU-145 [14] = test: Antiproliferative activity against human DU-145 cells assessed as cell growth inhibition at 25 uM incubated for 72 hrs by MTT assay relative to control; assay type: functional
[15] = Antiproliferative activity against human SJG2 cells assessed as cell growth inhibition at 25 uM incubated for 72 hrs by MTT assay relative to control; assay type: functional; details: SJ-G2
A-431 [16] = test: Antiproliferative activity against human A-431 cells assessed as cell growth inhibition at 25 uM incubated for 72 hrs by MTT assay relative to control; assay type: functional
U-87 MG [17] = test: Antiproliferative activity against human U87 cells assessed as cell growth inhibition at 25 uM incubated for 72 hrs by MTT assay relative to control; assay type: functional, U-87MG ATCC
MIA PaCa-2 [18] = test: Antiproliferative activity against human MIA PaCa-2 cells assessed as cell growth inhibition at 25 uM incubated for 72 hrs by MTT assay relative to control; assay type: functional
MIA PaCa-2 [19] = test: Antiproliferative activity against human MIA PaCa-2 cells assessed as cell growth inhibition incubated for 72 hrs by MTT assay; assay type: functional
DU-145 [20] = test: Antiproliferative activity against human DU-145 cells assessed as cell growth inhibition incubated for 72 hrs by MTT assay; assay type: functional
MCF7 [21] = test: Antiproliferative activity against human MCF7 cells assessed as cell growth inhibition incubated for 72 hrs by MTT assay; assay type: functional
[22] = Cytotoxicity against human MCF-10A cells assessed as cell growth inhibition incubated for 72 hrs by MTT assay; assay type: toxicity, cell-based

Row | SMILES | inhibition at 25 µM (A2780 [1]) [%] | inhibition at 72 h, 25 µM [2] [%] | GI50 (U-87 MG [3]) [µM] | GI50 (HT-29 [4]) [µM] | GI50 (BE(2)-C [5]) [µM] | inhibition at 25 µM (MCF7 [6]) [%] | inhibition at 25 µM (NCI-H460 [7]) [%] | GI50 (A2780 [8]) [µM] | GI50 (A-431 [9]) [µM] | inhibition at 25 µM (BE(2)-C [10]) [%] | GI50 (NCI-H460 [11]) [µM] | inhibition at 25 µM (HT-29 [12]) [%] | GI50 [13] [µM] | inhibition at 25 µM (DU-145 [14]) [%] | inhibition at 25 µM [15] [%] | inhibition at 25 µM (A-431 [16]) [%] | inhibition at 25 µM (U-87 MG [17]) [%] | inhibition at 25 µM (MIA PaCa-2 [18]) [%] | GI50 (MIA PaCa-2 [19]) [µM] | GI50 (DU-145 [20]) [µM] | other results
1 | O=C1NC(c2cccc([N+](=O)[O-])c2)Nc2ccccc21 (stereo unspecified) | 69 | 54 | > 50 | 17 | 19 | > 100 | 59 | 18 | 20 | 58 | 24 | 78 | 22 | 33 | 61 | 67 | 20 | 56 | 20 | 45 | GI50 (MCF7 [21]): 6.7 µM; GI50 at 72 h [22]: 21 µM
2 | Cc1ccc(/C=C/c2nc(O)c3ccccc3n2)cc1 | 97 | 86 | 19 | 2.1 | 3.6 | > 100 | 69 | 3.7 | 4 | 82 | 9.4 | > 100 | 13 | 61 | 57 | 93 | 51 | 85 | 3.3 | 7.7 | GI50 (MCF7 [21]): 1.2 µM; GI50 at 72 h [22]: 3.8 µM
3 | COc1cccc(C2NC(=O)c3ccccc3N2)c1 (stereo unspecified) | 100 | > 100 | 2.7 | 1.7 | 2.3 | 85 | 100 | 2.6 | 2.1 | > 100 | 3.3 | > 100 | 3.3 | > 100 | > 100 | > 100 | 99 | 94 | 4.1 | 2.3 | GI50 (MCF7 [21]): 5.8 µM; GI50 at 72 h [22]: 3.2 µM
4 | O=C1NC(c2ccc([N+](=O)[O-])cc2)Nc2ccccc21 (stereo unspecified) | 65 | 58 | > 50 | 8.7 | 10 | > 100 | 61 | 11 | 17 | 53 | 14 | 70 | 10 | 50 | 56 | 57 | 22 | 52 | 7.5 | 26 | GI50 (MCF7 [21]): 3.8 µM; GI50 at 72 h [22]: 11 µM
5 | O=C1NC(c2cccc(O)c2)Nc2ccccc21 (stereo unspecified) | 95 | 92 | 19 | 6.3 | 6.4 | 66 | 94 | 3 | 3.7 | 97 | 14 | > 100 | 12 | 72 | > 100 | > 100 | 65 | 86 | 15 | 16 | GI50 (MCF7 [21]): 13 µM; GI50 at 72 h [22]: 14 µM
6 | CC(C)(C)c1ccc(C2NC(=O)c3ccccc3N2)cc1 (stereo unspecified) | 63 | 53 | > 50 | 9.7 | 20 | > 100 | 44 | 15 | > 50 | 47 | > 50 | 79 | > 50 | 47 | 46 | 32 | 40 | 60 | 14 | 35 | GI50 (MCF7 [21]): 8.4 µM; GI50 at 72 h [22]: 19 µM
7 | O=C1NC(c2cccs2)Nc2ccccc21 (stereo unspecified) | 98 | 84 | 23 | 7.6 | 9.3 | 91 | 88 | 4.7 | 7.4 | 91 | 15 | 90 | 23 | 57 | 60 | > 100 | 56 | 74 | 18 | 25 | GI50 (MCF7 [21]): 11 µM; GI50 at 72 h [22]: 15 µM
8 | O=c1[nH]c(-c2ccc(Br)cc2)nc2ccccc12 | 83 | 91 | 10 | 5.2 | 6.4 | 99 | 68 | 3.9 | 5.8 | 77 | 5.7 | 91 | 4.3 | 98 | 66 | 88 | 91 | 71 | 8.8 | 4.5 | GI50 (MCF7 [21]): 3.8 µM; GI50 at 72 h [22]: 5.4 µM
